Laboratory results reported in patent publication US9695155B2, “Herbicidal substituted pyrimidinyloxy benzene compounds” (E. I. DU PONT DE NEMOURS AND COMPANY, priority 2013, dated 2017).

Key:
blackgrass = test: Test D preemergence; assay type: in vivo, Alopecurus myosuroides; conditions: Alopecurus myosuroides, pre-emergence, scale 0-100, read-out: Plant response rating, Blackgrass
Procedure, shortened: (§1)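 In a controlled growth environment, treated and control plants were held 7 to 21 days, then compared visually. Damage was scored 0–100, where 100 means complete control. Sprays contained surfactant in a non-phytotoxic solvent; post-applied plants were at the 1- to 4-leaf stage.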

Italian ryegrass = test: Test D preemergence; assay type: in vivo, Lolium multiflorum; conditions: Lolium multiflorum, pre-emergence
Description: (§2) Seeds of plant species selected from bluegrass (annual bluegrass, Poa annua), blackgrass (Alopecurus myosuroides), canarygrass (littleseed canarygrass, Phalaris minor), chickweed (common chickweed, Stellaria media), galium (catchweed bedstraw, Galium aparine), bromegrass, downy (downy bromegrass, Bromus tectorum), field poppy (Papaver rhoeas), field violet (Viola arvensis), green foxtail (Setaria viridis), deadnettle (henbit deadnettle, Lamium amplexicaule), Italian ryegrass (Lolium multiflorum), kochia (Kochia scoparia), lambsquarters (Chenopodium album), oilseed rape (Brassica napus), pigweed (Amaranthus retroflexus), chamomile (scentless chamomile, Matricaria inodora), Russian thistle (Salsola kali), speedwell (bird's-eye speedwell, Veronica persica), spring barley (Hordeum vulgare), spring wheat (Triticum aestivum), wild buckwheat (Polygonum convolvulus), wild mustard (Sinapis arvensis), wild oat (Avena fatua), wild radish (Raphanus raphanistrum), windgrass (Apera spica-venti), winter barley (Hordeum vulgare), and winter wheat (Triticum aestivum) were planted into a silt loam soil and treated preemergence with test chemicals formulated in a non-phytotoxic solvent mixture which included a surfactant.
(§3) At the same time, these species were planted in pots containing Redi-Earth® planting medium (Scotts Company, 14111 Scottslawn Road, Marysville, Ohio 43041) comprising spaghnum peat moss, vermiculite, wetting agent and starter nutrients and treated with postemergence applications of the test chemicals formulated in the same manner. Plants ranged in height from 2 to 18 cm (1- to 4-leaf stage). Treated plants and controls were maintained in a controlled growth environment for 7 to 21 days after which time all species were compared to controls and visually evaluated. Plant response ratings, summarized in Table D, are based on a scale of 0 to 100 where 0 is no effect and 100 is complete control. A dash (-) response means no test result.

wild oat = test: Test D preemergence; assay type: in vivo, Avena fatua; conditions: Avena fatua, pre-emergence, scale 0-100, read-out: Plant response rating, Oat, Wild
Description: as §2, §3

field violet = test: Test D postemergence; assay type: in vivo, Viola arvensis; conditions: Viola arvensis, post-emergence, scale 0 to 100 (0 no effect, 100 complete control), read-out: Plant response rating, Field Violet
Procedure, shortened: as §1

deadnettle = test: Test D postemergence; assay type: in vivo, Lamium amplexicaule; conditions: Lamium amplexicaule, post-emergence, scale 0 to 100 (0 no effect, 100 complete control), read-out: Plant response rating, Deadnettle
Procedure, shortened: as §1

oilseed rape = test: Test D postemergence; assay type: in vivo, Brassica napus; conditions: Brassica napus, post-emergence, scale 0 to 100 (0 no effect, 100 complete control), read-out: Plant response rating, Oilseed Rape
Procedure, shortened: as §1

speedwell = test: Test D postemergence; assay type: in vivo, Veronica persica; conditions: Veronica persica, post-emergence, scale 0 to 100 (0 no effect, 100 complete control), read-out: Plant response rating, Speedwell
Description: as §2, §3

spring barley = test: Test D postemergence; assay type: in vivo, Hordeum vulgare; conditions: Hordeum vulgare, post-emergence, Postemergence, scale 0 to 100 (0 no effect, 100 complete control), read-out: Plant response rating, Barley, Spring
Procedure, shortened: as §1

winter barley = test: Test D postemergence; assay type: in vivo, Hordeum vulgare; conditions: Hordeum vulgare, post-emergence, Postemergence, scale 0 to 100 (0 no effect, 100 complete control), read-out: Plant response rating, Barley, Winter
Procedure, shortened: as §1

`N#Cc1cccc(Oc2ncc(Cl)cn2)c1-n1cc(Br)cn1` [Compound 52, 2-(4-bromo-1H-pyrazol-1-yl)-3-[(5-chloro-2-pyrimidinyl)oxy]benzonitrile] gave a pest or weed control at 31 g/ha (blackgrass; 31 g ai/ha) of 5%, a pest or weed control at 62 g/ha (blackgrass; 62 g ai/ha) of 5% and a pest or weed control at 125 g/ha (blackgrass; 125 g ai/ha) of 30%. It also gave a pest or weed control at 250 g/ha (blackgrass; 250 g ai/ha) of 95%, a pest or weed control at 31 g/ha (Italian ryegrass; 31 g ai/ha, scale 0 (no effect) to 100 (complete control), read-out: Plant response rating, Ryegrass, Italian) of 0% and a pest or weed control at 62 g/ha (Italian ryegrass; 62 g ai/ha, scale 0-100, read-out: Plant response rating, Ryegrass, Italian) of 0%. It also gave a pest or weed control at 125 g/ha (Italian ryegrass; 125 g ai/ha, scale 0-100, read-out: Plant response rating, Ryegrass, Italian) of 5%, a pest or weed control at 250 g/ha (Italian ryegrass; 250 g ai/ha, scale 0-100, read-out: Plant response rating, Ryegrass, Italian) of 50% and a pest or weed control at 31 g/ha (wild oat; 31 g ai/ha) of 0%. For the same compound, the pest or weed control at 62 g/ha (wild oat; 62 g ai/ha) was 0%, the pest or weed control at 125 g/ha (wild oat; 125 g ai/ha) was 0% and the pest or weed control at 250 g/ha (wild oat; 250 g ai/ha) was 20%. It also gave a pest or weed control at 31 g/ha (field violet; 31 g ai/ha) of 100%, a pest or weed control at 62 g/ha (field violet; 62 g ai/ha) of 100% and a pest or weed control at 125 g/ha (field violet; 125 g ai/ha) of 100%. The pest or weed control at 250 g/ha (field violet; 250 g ai/ha) was 100%, the pest or weed control at 31 g/ha (deadnettle; 31 g ai/ha) was 65% and the pest or weed control at 62 g/ha (deadnettle; 62 g ai/ha) was 70%. It also gave a pest or weed control at 125 g/ha (deadnettle; 125 g ai/ha) of 70%, a pest or weed control at 250 g/ha (deadnettle; 250 g ai/ha) of 100% and a plant injury at 31 g/ha (oilseed rape; 31 g ai/ha) of 55%. For the same compound, the plant injury at 62 g/ha (oilseed rape; 62 g ai/ha) was 65%, the plant injury at 125 g/ha (oilseed rape; 125 g ai/ha) was 85% and the plant injury at 250 g/ha (oilseed rape; 250 g ai/ha) was 95%. For the same compound, the pest or weed control at 31 g/ha (speedwell; 31 g ai/ha) was 70%, the pest or weed control at 62 g/ha (speedwell; 62 g ai/ha) was 95% and the pest or weed control at 125 g/ha (speedwell; 125 g ai/ha) was 100%. For the same compound, the pest or weed control at 250 g/ha (speedwell; 250 g ai/ha) was 100%, the plant injury at 31 g/ha (spring barley; 31 g ai/ha) was 10% and the plant injury at 62 g/ha (spring barley; 62 g ai/ha) was 15%. For the same compound, the plant injury at 125 g/ha (spring barley; 125 g ai/ha) was 15%, the plant injury at 250 g/ha (spring barley; 250 g ai/ha) was 20% and the plant injury at 31 g/ha (winter barley; 31 g ai/ha) was 10%. For the same compound, the plant injury at 62 g/ha (winter barley; 62 g ai/ha) was 10%, the plant injury at 125 g/ha (winter barley; 125 g ai/ha) was 15% and the plant injury at 250 g/ha (winter barley; 250 g ai/ha) was 20%.
